Test results taken from patent US11911469B2, “Combination of ACAT1 inhibitor and checkpoint antibody for treating cancer” (Shanghai Institutes for Biological Sciences, Chinese …, priority 2016, dated 2024).

Key:
[1] = tested on: CD8+ T cells; assay: Cytokine and cytolytic granule production of stimulated CD8+ T cells; assay type: cell-based, mouse; conditions: pretreated cells stimulated with 5 μg ml−1 plate-bound anti-CD3/CD28; versus vehicle (DMSO)
Procedure: Peripheral T cells were isolated from mouse spleen and draining lymph nodes by a CD8^+ or CD4^+ T cell negative selection kit (Stem cell). To analyse the tumour-infiltrating T cells, tumours were first digested by collagenase IV (sigma), and tumour-infiltrating leukocytes were isolated by 40-70% percoll (GE) gradient centrifugation. To measure the effector function of CD8^+ T cells, the isolated cells were first stimulated with 1 μM ionomycin and 50 ng/ml PMA for 4 hours in the presence of 5 μg/ml BFA, and then stained with PERCP-α-CD8a. Next, cells were fixed with 4% PFA and stained with FITC-α-Granzyme B, APC-α-IFNγ and PE-α-TNFα. In general, to gate the cytokine or granule producing cells, T cells without stimulation or stained with isotype control antibody were used as negative controls. This gating strategy is applicable for most of the flow cytometric analyses. To detect the MDSCs (myeloid-derived suppressor cells) in the tumour, the percoll isolated leukocyte were stained with α-CD45, α-CD11b and α-Ly6G (Gr1), the CD45^+ population was gated, after which the MDSC population (CD11b^+ Gr1^+) in CD45^+ were gated.
(§1) CD8^+ T cells were pretreated with vehicle (dimethylsulfoxide, DMSO), CP-113,818 or K604. Then the cells were stimulated with 5 μg ml^−1 plate-bound anti-CD3/CD28, and cytokine and cytolytic granule production was studied. Cytotoxicity of OT-I CTLs pretreated with CP-113,818 or K604 or vehicle was also studied.

[2] = tested on: OT-I CTLs; assay: Cytotoxicity of OT-I CTLs against antigen-pulsed EL-4 cells (LDH assay); assay type: cell-based, mouse; conditions: for cytotoxicity of CD8+ T cells: OT-I CTLs pretreated with compound or vehicle
Procedure: To generate mature Cytotoxic T lymphocytes (CTLs), splenocytes isolated from Acat1^CKO-OT-I mice or WT OT-I mice were stimulated with OVA257-264 (N4) for 3 days in the presence of 10 ng/ml IL-2. Cells were centrifuged and cultured in fresh medium containing 10 ng/ml IL-2 for 2 more days, after which most of the cells in the culture were CTLs. To measure CD8^+ T-cell cytotoxicity, EL-4 cells were pulsed with 2 nM antigenic peptide (N4, A2, T4, G4, R4 or Catnb) for 30 minutes. After washing EL-4 cells and CTLs three times with PBS, we mixed CTLs and antigen-pulsed EL-4 cells (1×10^5) in the killing medium (phenol free-RPMI 1640, 2% FBS), at the ratio of 1:1, 1:2 and 1:5, respectively. After 4 hours, the cytotoxic efficiency was measured by quantifying the release of endogenous lactate dehydrogenase (LDH) from EL-4 cells using a CytoTox 96 Non-Radioactive Cytotoxicity kit (Promega).
as §1
(§2) To study ACAT1 inhibitors in cancer immunotherapies in mice, melanoma-bearing mice were treated with a potent ACAT-1 inhibitor, avasimibe (Ava), or DMSO control, and tumour size and survival were studied. A combined therapy (avasimibe and anti-PD-1) or monotherapies (avasimibe or anti-PD-1) were also studied and compared in treating melanoma. In a lung cancer model, Lewis lung carcinoma-bearing mice were treated with avasimibe or DMSO control, and tumour multiplicity and survival were studied. Cytokine productions of stimulated human (h) CD8^+ T cells pretreated with avasimibe, CP-113,818, or DMSO. CTL cytotoxicity after avasimibe treatment was measured by the LDH assay. OT-I CTLs were pretreated with avasimibe or vehicle for 6 h and then incubated with EL-4 cells pulsed with OVA257-264 peptide for 4 h.

[3] = tested on: Lewis lung carcinoma (LLC); assay: Lewis lung carcinoma (LLC) model, avasimibe therapy; assay type: in vivo, mice; conditions: avasimibe 15 mg/kg intraperitoneally every 3 days, Day 10 to Day 35; versus DMSO control
Procedure: The LLC cells were washed twice with PBS and filtered by a 40 μm strainer. After which, the LLC cells (2×10^6) were intravenously injected into WT or Acat1^CKO mice at the age of 8-10 weeks. To detect the tumour multiplicity in the lung, the mice were euthanized at Day 35 post tumour inoculation and tumour numbers in the lung were counted. In the avasimibe therapy, on Day 10 mice were randomly divided into two groups. From Day 10 to Day 35 post tumour inoculation, avasimibe was injected intraperitoneally to the mice at the dose of 15 mg/kg every 3 days.
as §2

[4] = tested on: B16F10 cells; assay: Skin melanoma mouse model, avasimibe therapy; assay type: in vivo; conditions: melanoma-bearing mice; avasimibe 15 mg/kg intraperitoneally every 2 days from Day 10; versus DMSO control
Procedure: B16F10 cells were washed three times with PBS, filtered by a 40 μm strainer. […] From Day 10, tumour size was measured every 2 days, and animal survival rate was recorded every day. Tumour size was calculated as length×width. Mice with tumour size larger than 20 mm at the longest axis were euthanized for ethical consideration. To analyse effector function of tumour-infiltrating T cells, mice were euthanized on Day 16. In the avasimibe therapy, on Day 10 mice bearing tumour of similar size were randomly divided into two groups. From Day 10, avasimibe was injected intraperitoneally to the mice at the dose of 15 mg/kg every 2 days.
as §2, with “OT-I CTLs were pretreated with avasimibe or vehicle for 6 h and then incubated with EL-4 cells pulsed with OVA257-264 peptide for 4 h.” left out

[5] = tested on: human CD8+ T cells; assay: Human CD8+ T-cell cytokine production; assay type: cell-based; conditions: PBMCs pretreated 12 hours, stimulated with plate-bound α-CD3 and α-CD28 (5 μg/ml each) for 24 hours; versus DMSO
Procedure: Human peripheral blood mononuclear cells (PBMCs) from healthy donators were stimulated with 5 μg/ml PHA (Sigma) for 2 days and then rested for 1 day. Cells were pretreated with vehicle (DMSO), CP113, 818 or avasimibe for 12 hours and then stimulated with plate-bound α-CD3 (5 μg/ml) and α-CD28 (5 μg/ml) antibodies for 24 hours. Intracellular staining and flow cytometry were used to assess cytokines production of CD8^+ T cells. […] A combined therapy (avasimibe and anti-PD-1) or monotherapies (avasimibe or anti-PD-1) were also studied and compared in treating melanoma. In a lung cancer model, Lewis lung carcinoma-bearing mice were treated with avasimibe or DMSO control, and tumour multiplicity and survival were studied. […] CTL cytotoxicity after avasimibe treatment was measured by the LDH assay. OT-I CTLs were pretreated with avasimibe or vehicle for 6 h and then incubated with EL-4 cells pulsed with OVA257-264 peptide for 4 h.

[6] = doses at least up to 750 mg four times daily (i.e., 3000 mg/day); cited from earlier work

| Structure (SMILES) | cytolytic granule and cytokine productions of CD8+ T cells [1] | cytotoxicity of CD8+ T cells [2] | also measured |
| --- | --- | --- | --- |
| CC[C@H](C)C(=O)O[C@H]1C[C@@H](C)C=C2C=C[C@H](C)[C@H](CC[C@@H]3C[C@@H](O)CC(=O)O3)[C@H]21 [Lovastatin] | significantly decreased |  |  |
| CSc1cc(C)nc(SC)c1NC(=O)CN1CCN(CCSc2nc3ccccc3[nH]2)CC1 [K604, 2-[4-[2-(benzimidazol-2-ylthio)ethyl]piperazin-1yl]-N-[2,4-bis(methylthio)-6-methyl-3-pyridyl]acetamide] | augmented | augmented |  |
| CCN(CC)CCO[C@H]1CC[C@@]2(C)C(=CC[C@@H]3[C@@H]2CC[C@]2(C)C(=O)CC[C@@H]32)C1 [U18666A] | significantly decreased |  |  |
| CC(C)c1cc(C(C)C)c(CC(=O)NS(=O)(=O)Oc2c(C(C)C)cccc2C(C)C)c(C(C)C)c1 [avasimibe, [2,6-di(propan-2-yl)phenyl] N-[2-[2,4,6-tri(propan-2-yl)phenyl]acetyl]sulfamate] |  |  | antitumor effect in Lewis lung carcinoma (tumour multiplicity and survival) [3]: good antitumor effect; survival time [4]: prolonged; tumour growth [4]: inhibited; cytokine production of human CD8+ T cells [5]: enhanced; tolerability in adult human subjects [6]: well tolerated; effector function of mouse CD8+ T cells ex vivo (CTL cytotoxicity, LDH assay) ([2]; OT-I CTLs pretreated for 6 h, then incubated with OVA257-264 pulsed EL-4 cells for 4 h): enhance |
| CCCCCCCC[C@H](SCCCCCC)C(=O)Nc1c(SC)cc(C)nc1SC [CP-113,818, (S)-N-(2,4-Bis(methylthio)-6-methylpyridin-3-yl)-2-(hexylthio)decanoic acid amide] | augmented | augmented |  |
